In ChEMBL document CHEMBL1221220, “Transport and signaling via the amino acid binding site of the yeast Gap1 amino acid transceptor” (Nat Chem Biol, 2009):
Where a chain is given by its changes, count along the chain named. Activity calls are given as the source filed them. No cut-off for these calls is given here.

Columns and labels:
[1] = system: T1, General amino-acid permease GAP1 (Saccharomyces cerevisiae), P19145 [I382C]; assay: Induction of yeast Gap1 I382C mutant-mediated trehalose activation at 10 mM
T1 sequence (whole entry): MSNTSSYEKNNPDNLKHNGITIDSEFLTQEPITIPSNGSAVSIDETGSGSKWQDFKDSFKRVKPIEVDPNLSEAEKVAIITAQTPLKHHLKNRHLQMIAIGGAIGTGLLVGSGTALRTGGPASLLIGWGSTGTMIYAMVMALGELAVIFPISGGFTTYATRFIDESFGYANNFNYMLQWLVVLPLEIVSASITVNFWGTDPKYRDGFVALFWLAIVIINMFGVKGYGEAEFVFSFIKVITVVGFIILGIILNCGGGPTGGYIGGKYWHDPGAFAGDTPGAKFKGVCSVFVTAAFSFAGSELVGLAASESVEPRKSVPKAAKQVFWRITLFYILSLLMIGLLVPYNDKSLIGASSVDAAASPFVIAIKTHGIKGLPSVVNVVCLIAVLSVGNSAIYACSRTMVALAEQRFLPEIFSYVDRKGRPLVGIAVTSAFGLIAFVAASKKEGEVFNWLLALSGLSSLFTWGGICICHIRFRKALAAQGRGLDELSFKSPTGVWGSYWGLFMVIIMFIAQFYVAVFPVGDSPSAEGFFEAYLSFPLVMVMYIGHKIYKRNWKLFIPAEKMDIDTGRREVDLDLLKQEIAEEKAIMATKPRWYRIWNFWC

[2] = system: T2, General amino-acid permease GAP1 (Saccharomyces cerevisiae), P19145 [N391C]; assay: Induction of yeast Gap1 N391C mutant-mediated trehalose activation at 10 mM
T2 sequence (whole entry): T1 sequence (whole entry) with C382I, N391C

[3] = system: T3, General amino-acid permease GAP1 (Saccharomyces cerevisiae), P19145 [A393C]; assay: Induction of yeast Gap1 A393C mutant-mediated […] activation at 2 mM in presence of 10 mM MTSEA treated before compound addition
T3 sequence (whole entry): T1 sequence (whole entry) with C382I, A393C

[4] = system: T4, General amino-acid permease GAP1 (Saccharomyces cerevisiae), P19145 [A396C]; assay: Induction of yeast Gap1 A396C mutant-mediated […] activation at 2 mM in presence of 10 mM MTSEA treated before compound addition
T4 sequence (whole entry): T1 sequence (whole entry) with C382I, A396C

Activity [1]: inactive | Activity [2]: inactive | inhibition [3]: Active | inhibition [4]: Active
Structure (SMILES): NC(=O)NCCC[C@H](N)C(=O)O
